Experimental data from patent publication US20240199546A1, “INHIBITORS OF SOLUTE CARRIER FAMILY 6A MEMBER 19 (SLC6A19) AND METHODS OF USE THEREOF” (Maze Therapeutics, Inc., priority 2022, published 2024).

Target: T1, human SLC6A19 and TMEM27 (Homo sapiens, UniProt Q695T7)
T1 construct: expressed in transfected cells
T1 sequence (Q695T7 1-634): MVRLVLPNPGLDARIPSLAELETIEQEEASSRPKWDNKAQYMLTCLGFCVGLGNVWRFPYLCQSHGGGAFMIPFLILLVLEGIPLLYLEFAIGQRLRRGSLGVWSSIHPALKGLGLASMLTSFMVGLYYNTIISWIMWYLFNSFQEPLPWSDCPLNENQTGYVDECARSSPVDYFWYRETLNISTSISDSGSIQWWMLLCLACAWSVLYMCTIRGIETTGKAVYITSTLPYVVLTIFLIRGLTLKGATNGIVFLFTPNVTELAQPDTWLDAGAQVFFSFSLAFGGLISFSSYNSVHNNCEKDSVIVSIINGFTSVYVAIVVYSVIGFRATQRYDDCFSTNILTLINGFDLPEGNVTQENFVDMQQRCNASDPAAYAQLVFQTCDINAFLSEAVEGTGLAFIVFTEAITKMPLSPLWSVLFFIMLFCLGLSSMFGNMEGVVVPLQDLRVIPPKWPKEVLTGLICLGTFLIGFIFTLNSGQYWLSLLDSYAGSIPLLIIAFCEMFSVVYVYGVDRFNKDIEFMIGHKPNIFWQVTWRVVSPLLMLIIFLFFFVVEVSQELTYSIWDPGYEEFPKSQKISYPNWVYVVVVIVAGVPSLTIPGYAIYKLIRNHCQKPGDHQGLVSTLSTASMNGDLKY
T1 sequence (Q9HBJ8 15-222 partner): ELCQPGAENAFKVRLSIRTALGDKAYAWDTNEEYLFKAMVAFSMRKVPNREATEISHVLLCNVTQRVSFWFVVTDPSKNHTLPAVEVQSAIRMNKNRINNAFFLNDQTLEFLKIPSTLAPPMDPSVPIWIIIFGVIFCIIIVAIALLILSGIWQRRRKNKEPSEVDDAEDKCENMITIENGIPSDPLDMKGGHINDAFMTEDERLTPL
Experiment: Radiolabelled (3H) leucine uptake in CHO cells with doxycycline-inducible expression of human SLC6A19 and TMEM27 (Example B-1)
Assay type: cell-based
Details: CHO cells with doxycycline-inducible expression of human SLC6A19 and TMEM27, read-out: SLC6A19_Radioligand Uptake Assay IC50
How it was run: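 CHO cells were induced with doxycycline for 18 h at 37 °C, washed in HBSS, then exposed to compounds for 1 h: 8-point, 3-fold dilutions in duplicate, 0.5% DMSO final. Uptake measured by scintillation counting after 2 h shaking. Activity normalized with positive control as 0% and DMSO as 100%.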

| SMILES | IC50 [nM] |
| --- | --- |
| CO[C@@H](C)C(=O)NCc1cc2cc(Cl)c(OCc3cscn3)cc2[nH]1 [Compound 291, (S)-N-((5-chloro-6-(thiazol-4-ylmethoxy)-1H-indol-2-yl)methyl)-2-methoxypropanamide] | 197 |
| CO[C@H](C)C(=O)NCc1cc2cc(Cl)c(OCc3cscn3)cc2[nH]1 [Compound 292, (R)-N-((5-chloro-6-(thiazol-4-ylmethoxy)-1H-indol-2-yl)methyl)-2-methoxypropanamide] | 666 |
| O=C(NCc1cc2cc(Cl)c(OCc3cscn3)cc2[nH]1)[C@@H]1CCCO1 [Compound 293, (S)-N-((5-chloro-6-(thiazol-4-ylmethoxy)-1H-indol-2-yl)methyl)tetrahydrofuran-2-carboxamide] | 500 |
| Cc1cc(COc2cc3[nH]c(CNC(=O)COC(F)F)cc3cc2Cl)on1 [Compound 294, N-((5-chloro-6-((3-methylisoxazol-5-yl)methoxy)-1H-indol-2-yl)methyl)-2-(difluoromethoxy)acetamide] | 135 |
| Cc1cc(COc2cc3[nH]c(CNC(=O)C4(CO)CCCO4)cc3cc2Cl)on1 (stereo not shown) [Compound 295, N-((5-chloro-6-((3-methylisoxazol-5-yl)methoxy)-1H-indol-2-yl)methyl)-2-(hydroxymethyl)tetrahydrofuran-2-carboxamide] | 1610 |
| Cc1cc(COc2cc3[nH]c(CNC(=O)C45CCC(CC4)O5)cc3cc2Cl)on1 [Compound 296, N-((5-chloro-6-((3-methylisoxazol-5-yl)methoxy)-1H-indol-2-yl)methyl)-7-oxabicyclo[2.2.1]heptane-1-carboxamide] | 976 |
| Cc1cc(COc2cc3[nH]c(CNC(=O)C45COC(C4)C5)cc3cc2Cl)on1 [Compound 298, N-((5-chloro-6-((3-methylisoxazol-5-yl)methoxy)-1H-indol-2-yl)methyl)-2-oxabicyclo[2.1.1]hexane-4-carboxamide] | 921 |
| COCCOCC(=O)NCc1cc2cc(Cl)c(OCc3cc(C)no3)cc2[nH]1 [Compound 299, N-((5-chloro-6-((3-methylisoxazol-5-yl)methoxy)-1H-indol-2-yl)methyl)-2-(2-methoxyethoxy)acetamide] | > 9060 |
| Cc1cc(COc2cc3[nH]c(CNC(=O)C45COCC4C5)cc3cc2Cl)on1 (stereo not shown) [Compound 300, N-((5-chloro-6-((3-methylisoxazol-5-yl)methoxy)-1H-indol-2-yl)methyl)-3-oxabicyclo[3.1.0]hexane-1-carboxamide] | 321 |
| Cc1cc(COc2cc3[nH]c(CNC(=O)C45CC(CO4)C5)cc3cc2Cl)on1 [Compound 301, N-((5-chloro-6-((3-methylisoxazol-5-yl)methoxy)-1H-indol-2-yl)methyl)-2-oxabicyclo[2.1.1]hexane-1-carboxamide] | 327 |
| Cc1cc(COc2cc3[nH]c(CNC(=O)[C@H]4COCCN4C)cc3cc2Cl)on1 [Compound 302, (R)-N-((5-chloro-6-((3-methylisoxazol-5-yl)methoxy)-1H-indol-2-yl)methyl)-4-methylmorpholine-3-carboxamide] | 7110 |
| Cc1cc(COc2cc3[nH]c(CNC(=O)[C@@H]4COCCO4)cc3cc2Cl)on1 [Compound 303, (S)-N-((5-chloro-6-((3-methylisoxazol-5-yl)methoxy)-1H-indol-2-yl)methyl)-1,4-dioxane-2-carboxamide] | 814 |
| Cc1cc(COc2cc3[nH]c(CNC(=O)[C@H]4COCCO4)cc3cc2Cl)on1 [Compound 304, (R)-N-((5-chloro-6-((3-methylisoxazol-5-yl)methoxy)-1H-indol-2-yl)methyl)-1,4-dioxane-2-carboxamide] | 718 |

The remaining lines, values ahead:

| IC50 [nM] | SMILES |
| --- | --- |
| 209 | Cc1cc(COc2cc3[nH]c(CNC(=O)C4(F)CCOC4)cc3cc2Cl)on1 (stereo not shown) [Compound 305, N-((5-chloro-6-((3-methylisoxazol-5-yl)methoxy)-1H-indol-2-yl)methyl)-3-fluorotetrahydrofuran-3-carboxamide] |
| 633 | Cc1cc(COc2cc3[nH]c(CNC(=O)C4OCCC4(F)F)cc3cc2Cl)on1 (stereo not shown) [Compound 306, N-((5-chloro-6-((3-methylisoxazol-5-yl)methoxy)-1H-indol-2-yl)methyl)-3,3-difluorotetrahydrofuran-2-carboxamide] |
| 579 | Cc1cc(COc2cc3[nH]c(CNC(=O)[C@@]4(C)CCCO4)cc3cc2Cl)on1 [Compound 307, (R)-N-((5-chloro-6-((3-methylisoxazol-5-yl)methoxy)-1H-indol-2-yl)methyl)-2-methyltetrahydrofuran-2-carboxamide] |
| 168 | O=C(NCc1cc2cc(Cl)c(OCc3cscn3)cc2[nH]1)[C@H]1CCOC1 [Compound 308, (S)-N-((5-chloro-6-(thiazol-4-ylmethoxy)-1H-indol-2-yl)methyl)tetrahydrofuran-3-carboxamide] |
| 1750 | O=C(CCO)NCc1cc2cc(Cl)c(OCc3cscn3)cc2[nH]1 [Compound 309, N-((5-chloro-6-(thiazol-4-ylmethoxy)-1H-indol-2-yl)methyl)-3-hydroxypropanamide] |
| 2520 | Cc1cc(COc2cc3[nH]c(CNC(=O)CC4CCCO4)cc3cc2Cl)on1 (stereo not shown) [Compound 310, N-((5-chloro-6-((3-methylisoxazol-5-yl)methoxy)-1H-indol-2-yl)methyl)-2-(tetrahydrofuran-2-yl)acetamide] |
| 129 | Cc1cc(COc2cc3[nH]c(CNC(=O)[C@H]4CCCO4)cc3cc2Cl)on1 [Compound 311, (R)-N-((5-chloro-6-((3-methylisoxazol-5-yl)methoxy)-1H-indol-2-yl)methyl)tetrahydrofuran-2-carboxamide] |
| 317 | Cc1cc(COc2cc3[nH]c(CNC(=O)[C@@H]4CCCO4)cc3cc2Cl)on1 [Compound 312, (S)-N-((5-chloro-6-((3-methylisoxazol-5-yl)methoxy)-1H-indol-2-yl)methyl)tetrahydrofuran-2-carboxamide] |
| 125 | CO[C@@H](C)C(=O)NCc1cc2cc(Cl)c(OCc3cc(C)no3)cc2[nH]1 [Compound 313, (S)-N-((5-chloro-6-((3-methylisoxazol-5-yl)methoxy)-1H-indol-2-yl)methyl)-2-methoxypropanamide] |
| 375 | CO[C@H](C)C(=O)NCc1cc2cc(Cl)c(OCc3cc(C)no3)cc2[nH]1 [Compound 314, (R)-N-((5-chloro-6-((3-methylisoxazol-5-yl)methoxy)-1H-indol-2-yl)methyl)-2-methoxypropanamide] |
| 148 | O=C(NCc1cc2cc(Cl)c(OCc3cscn3)cc2[nH]1)[C@@H]1CCO1 [Compound 315, (S)-N-((5-chloro-6-(thiazol-4-ylmethoxy)-1H-indol-2-yl)methyl)oxetane-2-carboxamide] |
| 284 | O=C(NCc1cc2cc(Cl)c(OCc3cscn3)cc2[nH]1)[C@@H]1CCOC1 [Compound 316, (R)-N-((5-chloro-6-(thiazol-4-ylmethoxy)-1H-indol-2-yl)methyl)tetrahydrofuran-3-carboxamide] |
| 119 | Cc1cc(COc2cc3[nH]c(CNC(=O)[C@H]4CCO4)cc3cc2Cl)on1 [Compound 317, (R)-N-((5-chloro-6-((3-methylisoxazol-5-yl)methoxy)-1H-indol-2-yl)methyl)oxetane-2-carboxamide] |
| 226 | Cc1nc(COc2cc3[nH]c(CNC(=O)C4(C)CC4)cc3cc2Cl)no1 [Compound 318, N-((5-chloro-6-((5-methyl-1,2,4-oxadiazol-3-yl)methoxy)-1H-indol-2-yl)methyl)-1-methylcyclopropane-1-carboxamide] |
| 273 | CC1(C(=O)NCc2cc3cc(Cl)c(OCc4ncon4)cc3[nH]2)CC1 [Compound 319, N-((6-((1,2,4-oxadiazol-3-yl)methoxy)-5-chloro-1H-indol-2-yl)methyl)-1-methylcyclopropane-1-carboxamide] |
| 3730 | CC1(C(=O)NCc2cc3cc(Cl)c(OCc4sncc4Cl)cc3[nH]2)CC1 [Compound 325, N-((5-chloro-6-((4-chloroisothiazol-5-yl)methoxy)-1H-indol-2-yl)methyl)-1-methylcyclopropane-1-carboxamide] |
| 147 | CC1(C(=O)NCc2cc3cc(F)c(OCc4ccno4)cc3[nH]2)CC1 [Compound 328, N-((5-fluoro-6-(isoxazol-5-ylmethoxy)-1H-indol-2-yl)methyl)-1-methylcyclopropane-1-carboxamide] |
| 167 | Cc1cc(COc2cc3[nH]c(CNC(=O)C4(C)CC4)cc3cc2F)no1 [Compound 329, N-((5-fluoro-6-((5-methylisoxazol-3-yl)methoxy)-1H-indol-2-yl)methyl)-1-methylcyclopropane-1-carboxamide] |
